Each structure is given as a SMILES string.

A short description of this experiment: Body weight of low protein model rat fed amino acid added diet. It is filed as in vivo. The following applies: vs 1% C group. The procedure: Using 10-week-old CD(SD) male rats, they were raised on a 1 wt % casein feed obtained by reducing the protein in standard purified diet AIN-93G (manufactured by Oriental yeast Co., Ltd.) (Table 14). The animal fed on the 1 wt % casein diet for 28 days (4 weeks) was used as a low protein model, and an influence of amino acid administration was evaluated. 10-week-old CD(SD) male rats were divided into the groups shown in Table 17, casein 20 wt % (20% C group) or 1 wt % feed was fed for 28 days according to the schedule shown in FIG. 1, and the body weight of rats thereafter fed with a 1 wt % casein diet (1% C group),and further added with each amino acid shown in Table 16 (4AA addition group (4AA group); a group of 4AA less tryptophan (−Trp group); a group of 4AA less methionine (−Met group); and a group of 4AA less threonine (−Thr group)) was measured. 10-week-old CD(SD) male rats were divided into the groups shown in Table 18, casein 20 wt % (20% C group) or 1 wt % feed was fed for 28 days according to the schedule shown in FIG. 1, and the body weight of rats thereafter fed with a 1 wt % casein diet (1% C group), and further added with the amino acid shown in Table 16 (4AA addition group (4AA group); an isoleucine and threonine combined use group (Ile, Thr group); an isoleucine addition group (Ile group); and the a threonine addition group (Thr group)) was measured. 10-week-old CD(SD) male rats were divided into the groups shown in Table 19, casein 20 wt % (20% C group) or 1 wt % feed was fed for 28 days according to the schedule shown in FIG. 1, and the body weight and weight of viscera-isolated carcass of rats thereafter fed for 14 days with a 1 wt % casein diet (1% C group), and further added with 1.15 g of the amino acid shown in Table 20 per 1 kg feed (4AA addition group (4AA group); a group of essential and non-essential amino acids addition group less 4AA (ALL-4AA group); essential amino acid addition group less 4AA (EAA-4AA group), non-essential amino acid addition group (NEAA group); and glycine addition group (Gly group)) was measured. […]

The mark [1] stands for this setting: Experimental Example 4, 14 days after feeding amino acid added 1 wt % casein diet, FIG. 5.

Take `NCC(=O)O` [Gly, glycine]: the “body weight (ratio to day 0)” value (Experimental Example 5, 14 days after feeding diet with 1.15 g amino acid per 1 kg feed, FIG. 6) is given as “not recovered”.

On to `CC[C@H](C)[C@H](N)C(=O)O` [Ile, isoleucine], for which the “body weight (ratio to day 0)” value under setting [1] is reported as “increase of the body weight was weakened”. As to `C[C@@H](O)[C@H](N)C(=O)O` [Thr, threonine], under setting [1], the “body weight (ratio to day 0)” value is “significantly recovered”.

The record behind these values is US20160367529A1, “DEBILITY PREVENTATIVE” (AJINOMOTO CO., INC., priority 2014, published 2016).
